In publication PMC3133470, “Activity of Cathelicidin Peptides against Simkania negevensis” (International Journal of Peptides, 2011):
Where no end group is shown, it is not given here.

Key:
[1] = system: Simkania negevensis reference strain Z (ATCC VR-1471); experiment: Inhibition of Simkania negevensis infectivity (reduction of inclusions) after pre-incubation of elementary bodies with peptide; format: cell-based; settings: purified EBs incubated with peptide 2 h at room temperature in PBS/SPG pH 7.4; tenfold dilutions 100 to 0.01 μg/mL; LLC-MK2 cells, 72 h at 35°C; inclusions by immunofluorescence; untreated control mean 74 IFU/mL; means of three experiments in triplicate
Method: The cathelicidin peptides—PG-1 from pig, Bac7 (1–35) from cattle, SMAP-29 from sheep, LL-37 from human, BMAP-27, and BMAP-28 from cattle—were chemically synthesized, purified, characterized, and provided as lyophilized peptide, as previously reported. The reference strain Z of S. negevensis (American Type Culture Collection VR-1471) was grown in LLC-MK2 cells in 6-large well plates and elementary bodies (EBs) were purified by use of sucrose gradients, resuspended in sucrose-phosphate-glutamic acid buffer (SPG) pH 7.4 (75 g sucrose, 87 mL 0.2 M Na2HPO4, 13 mL 0.2 M NaH2PO4, 0.72 g L-glutamic acid), and frozen in aliquots at −80°C.
Stock solutions of each peptide at 1 g/liter were prepared in phosphate-buffered saline (PBS), pH 7.4, and stored frozen in 20-μL aliquots at −80°C until used. To determine the lowest peptide concentration required to achieve ≥50% reduction of inclusions with respect to untreated control, the various peptides were diluted tenfold from 200 to 0.02 μg/mL, in a volume of 100 μL with PBS in polypropylene tubes. An equal volume of 5 × 10^5 inclusion-forming units (IFU)/mL of purified S. negevensis EBs in SPG medium was then added, so obtaining a final cathelicidin concentration ranging from 100 to 0.01 μg/mL in a mixture of PBS and SPG at a final pH 7.4. EBs untreated with cathelicidins were used as a control. After incubation at room temperature for 2 h, a 200 μL aliquot was added to 800 μL chlamydial growth medium and inoculated onto LLC-MK2 cells grown in 24-well plates in a 5% CO2 atmosphere. After centrifugation at 800 × g for 1 h at 33°C and incubation at 35°C for 72 h, the cultures were fixed and stained for the presence of inclusions by immunofluorescence using an in-house rabbit polyclonal hyperimmune serum raised against S. negevensis. The number of IFU per coverslip was counted in 40 microscopic fields using a ZEISS UV microscope at a magnification of ×200.
All tests were performed in triplicate and in three independent experiments.

Chlamydophila felis = settings: previous study of the authors; cited from earlier work
Method: (§1) With regard to the other chlamydial species tested, only Chlamydophila pneumoniae and Chlamydophila felis were sensitive to 10 μg/mL of SMAP-29 and 80 μg/mL of SMAP-29/Bac7, respectively.

[2] = system: Chlamydia trachomatis strains; settings: previous study of the authors; cited from earlier work
Method: as §1

Substance: PG-1: cathelicidin peptide from pig, chemically synthesized; native protegrin-1 has two intramolecular disulfide bonds (RGGRLCYCRRRFCVCVGR; not fully specified (bridges); ends and bridges not checked; also: native protegrin-1 has two intramolecular disulfides, pairing not given here; UniProt P32194 131-148, looked up)
- lowest peptide concentration required to achieve ≥50% reduction of inclusions with respect to untreated control [1]: 1 µg/mL

Substance: Bac7: cathelicidin peptide Bac7 (1–35) from cattle, chemically synthesized (RRIRPRPPRLPRPRPRPLPFPRPGPRPIPRPLPFP; Bactenecin 7; UniProt P19661 131-165, looked up, fragment)
- lowest peptide concentration required to achieve ≥50% reduction of inclusions with respect to untreated control [1]: 0.1 µg/mL
- concentration to which Chlamydophila felis was sensitive (Chlamydophila felis): 80 µg/mL

Substance: LL-37
- lowest peptide concentration required to achieve ≥50% reduction of inclusions with respect to untreated control [1]: > 100 µg/mL
- concentration with inhibitory effect on Chlamydia trachomatis strains [2]: > 80 µg/mL
